Values of other authors as cited in article PMC11094875, “Cholecystokinin B receptor agonists alleviates anterograde amnesia in cholecystokinin-deficient and aged Alzheimer's disease mice” (Alzheimer's Research & Therapy, 2024).
Like-named read-outs stand apart in the source and are kept apart here.

How the values were obtained:
[1] = as stated in the MWM method for the dosing schedule; no reference given
[2] = human plasm ref 31
[3] = rat plasm ref 31

- half-life [1]: less than 5 min
- half-life [2]: 13 min
- half-life [3]: < 1 min
Structure (SMILES): CSCC[C@H](NC(=O)[C@@H](N)Cc1c[nH]c2ccccc12)C(=O)N[C@@H](CC(=O)O)C(=O)N[C@@H](Cc1ccccc1)C(N)=O [CCK-4, CCK tetrapeptide]
